From patent US10683326B2, “Crystalline salt forms” (Stealth BioTherapeutics Corp., priority 2016, dated 2020)
Structures can show the parent of a compound that is named as a salt. Where a SMILES comes first, the peptide text is derived from it. [ ]: non-standard residue; d: D form. Dmt = Cc1cc(O)cc(C)c1C[C@H](N)C(=O)O

What was measured:
[1] = counterion acid; cited from earlier work
[2] = Salt disproportionation studies (slurry in deionized water, pH and XRPD); type: physicochemical; conditions: 20° C.
Protocol: The scaled-up tosylate and fumarate salts were subjected to salt disproportionation studies at ambient temperature. The following observations and results were obtained during these disproportionation studies: • After stirring the tosylate salt at 20° C. in deionized water for 30 min, pH=2.58.

[3] = Dynamic Vapor Sorption (DVS); type: physicochemical; conditions: for change in mass (DVS): between 20-90% RH
Protocol: Approximately 10 mg of sample was placed into a mesh vapor sorption balance pan and loaded into a DVS-1 dynamic vapor sorption balance by Surface Measurement Systems. The sample was subjected to a ramping profile from 40-90% relative humidity (RH) at 10% increments, maintaining the sample at each step until a stable weight had been achieved (99.5% step completion). After completion of the sorption cycle, the sample was dried using the same procedure to 0% RH and then a second sorption cycle back to 40% RH. The weight changes during the sorption/desorption cycles were plotted, allowing the hygroscopic nature of the sample to be determined. XRPD analysis was then carried out on the remaining solid.

[4] = Hydration studies in IPA/water at 3 water activities, XRPD; type: physicochemical
[5] = 7-day stability testing (40° C./75% RH, 80° C., ambient temperature and light), XRPD and HPLC; type: physicochemical; conditions: 7 days
Protocol: (§1) Approximately 30 mg of the tosylate and fumarate salts were subjected to 7-day stability testing under the following conditions: • 40° C./75% RH • 80° C. • Ambient temperature and light After 7 days under the stated conditions, XRPD and HPLC analysis was carried out on the resultant solid material. Salt Disproportionation Studies
as §1, with “light •” for “light”, “Hydration” for “Salt Disproportionation”
The scaled-up tosylate and fumarate salts were subjected to 7-day stability testing at 40° C./75% RH, 80° C. and ambient temperature and light.

physchem = assay: physchem
Protocol: 25 mL of 0.2 M potassium hydrogen phthalate solution and 2.50 mL of 0.2 M sodium hydroxide solution were diluted to 100 mL using deionized water. The pH was adjusted as required, using either potassium hydrogen phthalate or sodium hydroxide solution.
25 mL of 0.2 M potassium phosphate monobasic solution and 11.20 mL of 0.2 M sodium hydroxide solution were diluted to 100 mL using deionized water. The pH was adjusted as required, using either potassium phosphate monobasic or sodium hydroxide solution.

[6] = Primary salt screen: stability testing of crystalline hits for 72 hours at 40° C./75% RH, post-stability XRPD and HPLC
Protocol: The primary salt screen was carried out on 35 mg scale in a glovebag under nitrogen using >3 equivalents of the counterions in the appropriate solvent. The contents of the vials were temperature cycled from 30 to 5° C. Any solids were isolated and analyzed by XRFD. • Approximately 35 mg of received material was weighed into each vial, in a glovebag under nitrogen. If amorphous material or counterion isolated, material was returned to vial and solids re-dissolved through addition of an appropriate solvent. Further temperature cycling was then employed, followed by anti-solvent addition and evaporation if required. Solids, if present, were isolated by centrifugation and analyzed by XRPD.

[7] = counterion acid; cited from earlier work; remark: listed apart in the source
[8] = 40° C./75% RH, listed as tosylate
[9] = 40° C./75% RH, listed as fumarate

In the case of `CC(C)CCC[C@@H](C)[C@H]1CC[C@H]2[C@@H]3CC=C4C[C@@H](OS(=O)(=O)O)CC[C@]4(C)[C@H]3CC[C@]12C` [Cholesteryl sulfate], the LogP [1] is given as 4.45.
For `O=C(O)/C=C\C(=O)O` [Maleic], the LogP [1] is listed as −0.01.
For `Cc1ccc(S(=O)(=O)O)cc1` [p-Toluenesulfonic acid], the LogP [1] is listed as 0.93.
For `O=C(O)CCCCC(=O)O` [Adipic], the LogP [1] is listed as 0.08.
With `Cc1cc(O)cc(C)c1C[C@H](NC(=O)[C@H](N)CCCNC(=N)N)C(=O)N[C@@H](CCCCN)C(=O)N[C@@H](Cc1ccccc1)C(N)=O` [Tosylate Pattern 1] (H-[dR][Dmt]KF-NH2) the pH of slurry ([2]; 30 min, listed as tosylate salt) was 2.58, the “XRPD analysis of the post-slurry material” value ([2]; 20 h, listed as tosylate salt) was “no change to the input Pattern 1 material” and the pH of slurry ([2]; 20 h, listed as tosylate salt) was 2.53. The “change in mass (DVS)” value ([3]; listed as tosylate salt) was “ca. 1.3%”, the “Post-DVS XRPD analysis” value ([3]; listed as tosylate salt) was “remained Pattern 1” and the “hygroscopicity by DVS analysis” value ([3]; listed as tosylate salt) was “slightly hygroscopic”. The “XRPD analysis of the isolated solids after hydration studies” value (shortened to “XRPD analysis … after hydration studies”) ([4]; aw=0.368, 0.608 and 0.911, 20° C., 25 h) was “unchanged”, the “Post-stability XRPD analysis” value ([5]; 40° C./75% RH, 80° C. and ambient temperature and light) was “unchanged” and the “Purity by HPLC” value [5, 8] was 98.5%. For the same compound, the “decrease in purity after stability testing” value (shortened to “decrease in purity”) [5, 8] was “ca. 1.3%”, the “Purity by HPLC” value ([5]; 80° C., listed as Tosylate) was 99.4% and the solubility thermodynamic at 24 h (physchem; aqueous buffer pH 1.2, pH 1.2, Concentration by HPLC (thermodynamic solubility), buffer pH 1.2, 20° C., 24 h) was 23.8 mg/mL. For the same compound, the solubility at 24 h (physchem; aqueous buffers pH 1.2, 4.5 and 6.8) was roughly 25 mg/mL, the “Solid Form isolated after solubility study” value (“Solid Form isolated” below) (physchem; buffer pH 1.2, 20° C., 24 h, listed as Tosylate) was “Pattern 1” and the “Solid Form isolated” value (physchem; buffer pH 4.5, 20° C., 24 h) was “Pattern 1”. For the same compound, the “Solid Form isolated” value (physchem; buffer pH 6.8, 20° C., 24 h) was “Pattern 1”, the “XRPD analysis of the isolated solids after thermodynamic solubility studies” value (physchem; each buffer solution (pH 1.2, 4.5, 6.8), 20° C., 24 h) was “unchanged” and the “XRPD analysis of samples after stability testing” value ([6]; 40° C./75% RH, 72 hours) was “improved in crystallinity”. The “purity by HPLC analysis of samples after stability testing” value ([6]; 40° C./75% RH, 72 hours) was 80.6%, the “Purity by HPLC (post-stability)” value ([6]; 72 hours at 40° C./75% RH) was 80.6 and the “Same XRPD, post-stability” value ([6]; 72 hours at 40° C./75% RH, P1 = Pattern 1) was “yes”.
In the case of `CCS(=O)(=O)O` [Ethanesulfonic acid], the LogP [1] is listed as −1.36.
For `O=C(O)C(=O)O` [Oxalic], the LogP [1] is listed as −1.19.
For `C[C@H](CCC(=O)O)[C@H]1CC[C@H]2[C@@H]3CC[C@@H]4C[C@H](O)CC[C@]4(C)[C@H]3C[C@H](O)[C@]12C` [Deoxycholic acid], the “pKa 1” value [7] is listed as 4.76.
For `N[C@@H](CCC(=O)O)C(=O)O` [L-Glutamic acid], the LogP [1] is given as −1.43.
In the case of `O=C(O)C[C@H](O)C(=O)O` [L-Malic], the LogP [1] is listed as −1.26.
With `Cc1cc(O)cc(C)c1C[C@H](NC(=O)[C@H](N)CCCNC(=N)N)C(=O)N[C@@H](CCCCN)C(=O)N[C@@H](Cc1ccccc1)C(N)=O` [Fumarate Pattern 4] (H-[dR][Dmt]KF-NH2) the pH of slurry ([2]; 30 min, listed as fumarate salt) was 3.50, the “XRPD analysis of the post-slurry material” value ([2]; 20 h, listed as fumarate salt) was “changed to a new pattern (designated Pattern 5)” and the pH of slurry ([2]; 20 h, listed as fumarate salt) was 3.48. For the same compound, the “change in mass (DVS)” value ([3]; listed as fumarate salt) was “ca. 11.5%”, the “Post-DVS XRPD analysis” value ([3]; listed as fumarate salt) was “remained Pattern 4” and the “hygroscopicity by DVS analysis” value ([3]; listed as fumarate salt) was “hygroscopic”. For the same compound, the “XRPD analysis … after hydration studies” value ([4]; aw=0.368 and 0.608, 20° C., 24 h) was “Pattern 3”, the “XRPD analysis … after hydration studies” value ([4]; aw=0.911, 20° C., 24 h) was “Pattern 5” and the “Purity by HPLC” value [5, 9] was 97.5%. The “decrease in purity” value [5, 9] was “ca. 2.4%”, the “Post-stability XRPD analysis” value ([5]; 80° C.) was “loss of crystallinity” and the “decrease in purity” value ([5]; 80° C.) was “ca. 17%”. For the same compound, the “Purity by HPLC” value ([5]; 80° C., listed as Fumarate) was 83.0%, the “Purity by HPLC” value ([5]; ambient temperature and light) was 99.6% and the “Post-stability XRPD analysis” value ([5]; lower temperatures: 40° C./75% RH or ambient conditions) was “unchanged”. The “Solid Form isolated” value (physchem; buffer pH 1.2, 20° C., 24 h, listed as Fumarate) was “Fumaric acid”, the “Solid Form isolated” value (physchem; buffer pH 1.2, 20° C., 24 h, listed as fumarate salt) was “fumaric acid only” and the “Solid Form isolated” value (physchem; buffer pH 4.5, 20° C., 24 h, listed as fumarate salt) was “Pattern 5”. The “Solid Form isolated” value (physchem; buffer pH 6.8, 20° C., 24 h, listed as fumarate salt) was “No solid was isolated”.
In the case of `O=C(O)c1ccc2ccccc2c1O` [1-Hydroxy-2-naphthoic], the LogP [1] is given as 3.29.
For `CCCCCCCCCCCC(=O)O` [Lauric], the LogP [1] is given as 4.6 and the “pKa 1” value [7] is given as 4.90.
For `O=C[C@H](O)[C@@H](O)[C@H](O)[C@H](O)C(=O)O` [D-Glucuronic acid], the LogP [1] is listed as −1.49.
